Data reported in article PMC10634346 (Cancer Research Communications, 2023).

Test system: SU-DHL-4 and SU-DHL-10 cell lines
Assay: RNA-seq differential gene expression in DLBCL cell lines
Assay type: cell-based, human
Procedure: Evaluation of the pharmacodynamic extent and duration of CDK9 inhibition were performed in vitro using the human DLBCL cell lines SU-DHL-4 and SU-DHL-10, harboring MYC amplification and MYC overexpression with P57T mutation, respectively. Cells were seeded 18 hours prior to treatment for 4 hours with one of three CDK9 inhibitors, enitociclib (0.25 and1 µmol/L), atuveciclib (1 µmol/L) or KB-0742 (1 µmol/L), cells were washed, and incubation continued until 48 hours posttreatment. Samples were collected before treatment (−4), immediately after treatment (0), and at 1, 2, 4, 8, 12, 16, 24, and 48 hours after washout for RNA sequencing (RNA-seq), qPCR, and Western blotting analyses. Total RNA was extracted from blood of patients and cell lines using RNeasy Plus Mini Kit (QIAGEN, #74136) and cDNA prepared with the Maxima First Strand cDNA Synthesis Kit for RT-PCR (Thermo Fisher Scientific, K1642) according to manufacturer's instructions. The integrity of purified total RNA was evaluated using an Agilent 2100 Bioanalyzer system and RNA 6000 Nano Kit (Agilent, #5067-1511). Differential gene expression analysis was performed (Fios Genomics) from RNA-seq data (Discovery Life Sciences). MYC and MCL1 mRNA levels were measured by qPCR in vitro and in vivo, using a Taqman qPCR system (Thermo Fisher Scientific), TaqMan Fast Universal PCR Master Mix (2X) no AmpErase (#4352042) and TaqMan probes for MYC (Hs00153408_m1) and MCL1 (Hs03043899_m1). RNA-seq data were analyzed using DESeq2 ([35]). RNA-seq data generated from the analysis of two cell lines treated with the three CDK9 inhibitors was analyzed to investigate the differences in gene expression levels between various posttreatment timepoints and the pretreatment samples. Quality control assessment and exploratory data analysis by principal component analysis (PCA) were done on raw counts and on normalized count data. Normalization of RNA-seq count data was done using trimmed mean of M-values normalization and transformed with voom, resulting in log2 counts per million with associated precision weights. […] Significance values (Padj) were adjusted for multiple testing, by controlling the FDR using the Benjamini–Hochberg procedure. […] RNA-seq data generated from blood samples taken from patients before and after their first dose (C1D1) or after multiple doses, before and after their third dose (C1D15) were analyzed and normalized using the same pipeline as cell lines for comparisons.

With `COc1cc(F)ccc1-c1cc(Nc2cc(CS(C)(=N)=O)ccn2)ncc1F` (centres unmarked) [enitociclib] the PHF23 fold change (250 nmol/L, 4 hours, Padj 1.14 e-12) was −12.236, the TP53RK fold change (250 nmol/L, 4 hours, Padj 7.76 e-8) was −9.992 and the “BTG1 and PIM3 by RNA-seq (in words)” value (1 µmol/L, 4 hours) was “statistically significant downregulation”. For the same molecule, the “PHF23 and TP53RK by RNA-seq (in words)” value (1 µmol/L, 4 hours) was “statistically significantly downregulated”, the “MCL1 mRNA by RNA-seq (in words)” value (4 hours treatment, in vitro) was “downregulation is observed but not statistically significant” and the “MYC mRNA by RNA-seq (in words)” value (4 hours treatment, in vitro) was “statistically significantly downregulated”. For the same molecule, the “ZPF36 by RNA-seq (in words)” value (4 hours treatment, in vitro) was “significantly downmodulated” and the “MYC extent of downregulation, fold change” value (MYC+ DLBCL cell lines, clinically relevant conditions) was −17.108 fold change.
